Laboratory results: ChEMBL document CHEMBL1133379, “Bioisosteric modification of PETT-HIV-1 RT-inhibitors: synthesis and biological evaluation” (Bioorg Med Chem Lett, 2000)

Legend:
[1] = test system: Human immunodeficiency virus 1; assay: Antiviral activity against HIV-1 virus.; type: functional; conditions: read-out: ED50 (the source's name)
[2] = target: Human immunodeficiency virus type 1 reverse transcriptase (Human immunodeficiency virus 1, UniProt Q72547); assay: Inhibition of wild-type HIV-1 Reverse transcriptase.

| SMILES | EC50 [1] | IC50 [2] |
| --- | --- | --- |
| COc1ccccc1CCNC(=S)Nc1nccs1 | 400 nM | – |
| COc1cccc(C(=O)CC/N=C(\S)Nc2ccc(Br)cn2)c1 | 911 nM | 80 nM |
| O=C(CCNC(=S)Nc1ccc(Br)cn1)c1ccccc1 | 36 nM | < 27 nM |
| COc1ccccc1C(=O)CCNC(=S)Nc1ccc(Br)cn1 | 76 nM | 3 nM |
| CCOc1ccc(F)c(CCNC(=O)Nc2ccc(Br)cn2)c1Cl | 50 nM | – |
| O=S(=O)(NCCc1ccccc1)Nc1cncc(Cl)c1 | > 100000 nM | > 10000 nM |
| N=C(Nc1ccc(Br)cn1)N[C@@H]1C[C@@H]1c1ccccc1 | 1200 nM | 180 nM |
| O=C(CCNC(=S)Nc1ccc(Br)cn1)c1ccccc1Cl | 100 nM | 10 nM |
| Fc1cccc(F)c1CC/N=C(\S)Nc1ccc(Br)cn1 | 10 nM | – |
| O=C(CC/N=C(\S)Nc1ccc(Cl)cn1)c1c(F)cccc1F | 28 nM | 6 nM |
| S=C(Nc1ccc(Br)cn1)N[C@@H]1C[C@@H]1c1ccccc1 | 20 nM | 8 nM |
| S=C(NCCc1ccccc1)Nc1ccc(Cl)cn1 | 30 nM | 3 nM |
| O=C(NCCC(=O)c1ccccc1F)Nc1ccc(Br)cn1 | 201 nM | 54 nM |
| N#CN/C(=N\c1ccc(Cl)cn1)NCCc1ccccc1 | > 100000 nM | > 10000 nM |
| O=C(CC/N=C(\S)Nc1ccc(Br)cn1)c1ccc(F)cc1 | 300 nM | 47 nM |
| COc1ccccc1CCN=C(NC#N)Nc1nccs1 | > 100000 nM | > 10000 nM |
| O=C(CC/N=C(\S)Nc1ccc(Br)cn1)c1ccccc1F | 9 nM | 4 nM |
| O=C(CC/N=C(\S)Nc1ccc(Br)cn1)c1cc(F)ccc1F | 67 nM | < 25 nM |
| O=C(CCNC(=S)Nc1ccc(Br)cn1)c1c(F)cccc1F | 50 nM | 3 nM |
| CCOc1ccc(F)c(CC/N=C(\N)Nc2ccc(Br)cn2)c1Cl | 1000 nM | 400 nM |
| CCOc1ccc(F)c(CCNC(=S)Nc2ccc(Br)cn2)c1Cl [THIOUREA, N-(5-BROMO-2-PYRIDINYL)-N'-(2-(2-CHLORO-3-ETHOXY-6-FLUOROPHENYL)ETHYL)-] | 7 nM | – |
